# Measurements taken from patent US20100028395A1, “COMPOSITIONS CONTAINING N-ACETYLGLUCOSAMINE FOR USE IN DERMO-COSMETOLOGY AND AESTHETIC MEDICINE” (ROTTAPHARM S.P.A., priority 2007, published 2010).
# How the values were obtained:
# [1] = system: Human fibroblasts, Detroit 551 ATCC CCL III; experiment: Stimulation of HA synthesis in human fibroblast cultures (EIA HA assay); type: cell-based; details: for HA(ng/well) (Diff. from baseline) / HA (%) (Diff. from baseline): 48 h; for HA (%) from NAG (consistent doses): see Table 2
# Description: The test has been conducted in two stages, i.e.: • stage A: in which the stimulation of HA expression by COMBI has been evaluated while maintaining the concentration constant and varying the reciprocal quantities of its components. The concentration used has been selected so as to enable comparison with the results derived from stage B; • stage B: in which the effect of CA on HA expression has been evaluated by varying its concentration and in comparison with doses consistent with its components. […] Human fibroblasts have been grown in suitable growth medium (Eagle's minimal essential medium) supplemented with 10% foetal calf serum (FCS), 1 mM sodium pyruvate, 2 mM glutamine, non-essential aminoacids and 50 μg/ml glutamycin. […] After 48 hours, the supernatant has been removed and used for the determination of the parameters of interest. The test has been conducted in duplicate and untreated cell cultures have been used as controls. HA has been assayed (dosed) by means of an immuno-enzymatic test using a commercially available kit (EIA, Corgenix). De novo HA synthesis has been evaluated in the culture medium following treatment with the test substances, according to the protocol provided with the test, and against the calibration curve obtained using the HA standard contained in the kit. […] • evaluation of the effects of the substances tested, at the various concentrations, on fibroblast cultures has been expressed as the absolute and percent increase or decrease of the HA expression, with respect to the corresponding control culture, after 48 hours of incubation. The percentage difference increase or decrease of the effects exerted by CA and NAG, at corresponding concentrations, have then been calculated, with evaluation of their potential significance by means of the Student's “t” test.
# [2] = system: Human keratinocyte primary culture: HEKA; experiment: Stimulation of protein synthesis in human keratinocyte cultures (Lowry method); type: cell-based; details: keratinocytes
# Method: The following have been used: • Human fibroblasts, Detroit 551 ATCC CCL III from LGC Promochem (Milan, Italy); • Human keratinocyte primary culture: HEKA, Cascade Biologics, cat. 005-5C. Test substances and concentrations
# The substances and concentrations tested are those reported below (on both fibroblasts and keratinocytes): • CA: 0.13, 0.66, 1.32, and 2.64 mg/ml • NAG: 0.1, 0.5, 1.0, and 2.0 mg/ml
# The method is identical to that already described for collagen and elastin with the difference that, following the addition of the test substances into the culture medium, the medium has been substituted daily for three days. Each sample has been tested in duplicate and the experiments have been repeated twice. The parameter of interest, i.e. protein synthesis, has been evaluated at 24, 48 and 72 hours on separate plates. Untreated cell cultures have been used as controls.
# Protein has been assayed using the Lowry method [Lowry et al. 1951] consisting of a Biuret reduction reaction envisaging the use of Folin-Ciocalteau reagent as chromophore, with a yellow to blue colour change and spectrophotometric measurement at 750 nm [Creighton et al. 1984; Sengupta et al. 1993].
# The protein content of the cultures in question has been obtained from comparison of their optical densities with a titration curve made using albumin as a protein standard.
# Evaluation of the effect of the substances tested, at the various concentrations and times, on cultures of both fibroblasts and keratinocytes has been expressed in both absolute terms (expressed protein production in mg/ml) and as percentage increase or decrease with respect to control cultures.
# The percentage difference increase or decrease of the effects exerted by CA and NAG, over various days and at the corresponding concentrations, have then been calculated, with evaluation of their potential statistical significance by means of the test Student “t” test.
smiles,measurement,setting,value
"CC(=O)N[C@@H](C=O)[C@@H](O)[C@H](O)[C@H](O)CO [NAG, N-acetyl-2-amino-2 deoxyglucose]",HA(ng/well) (Diff. from baseline),[1]; NAG 0.50 mg/ml,+54 ng/well
same,HA (%) (Diff. from baseline),[1]; NAG 1.00 mg/ml,+58.98%
same,HA(ng/well) (Diff. from baseline),[1]; NAG 1.00 mg/ml,+289 ng/well
same,HA (%) (Diff. from baseline),[1]; NAG 1.50 mg/ml,+76.12%
same,HA(ng/well) (Diff. from baseline),[1]; NAG 1.50 mg/ml,+373 ng/well
same,HA (%) (Diff. from baseline),[1]; NAG 2.00 mg/ml,+78.78%
same,HA(ng/well) (Diff. from baseline),[1]; NAG 2.00 mg/ml,+386 ng/well
same,HA (%) (Diff. from baseline),[1]; NAG 2.50 mg/ml,+96.73%
same,HA(ng/well) (Diff. from baseline),[1]; NAG 2.50 mg/ml,+474 ng/well
same,HA (%) from NAG (consistent doses),[1]; NAG alone at 0.93 mg/ml (content of 1:3.5 combination),≈59%
same,HA (%) from NAG (consistent doses),[1]; NAG alone at 1.71 mg/ml (content of 1:0.5 combination),+76.12-+78.8%
same,Expr. prot. from NAG % incr. over baseline,"[2]; NAG 0.10 mg/ml, 24 hours",−34.7%
same,Expr. prot. from NAG (mg/ml) - Mean +/− st. dev.,"[2]; NAG 0.10 mg/ml, 24 hours",0.16 ± 0.037 mg/mL
same,Expr. prot. from NAG (mg/ml) - Mean +/− st. dev.,"[2]; NAG 0.10 mg/ml, 48 hours",0.42 ± 0.15 mg/mL
same,Expr. prot. from NAG % incr. over baseline,"[2]; NAG 0.10 mg/ml, 72 hours",+15.5%
same,Expr. prot. from NAG (mg/ml) - Mean +/− st. dev.,"[2]; NAG 0.10 mg/ml, 72 hours",0.67 ± 0.09 mg/mL
same,Expr. prot. from NAG % incr. over baseline,"[2]; NAG 0.50 mg/ml, 24 hours",−10.2%
same,Expr. prot. from NAG (mg/ml) - Mean +/− st. dev.,"[2]; NAG 0.50 mg/ml, 24 hours",0.22 ± 0.039 mg/mL
same,Expr. prot. from NAG (mg/ml) - Mean +/− st. dev.,"[2]; NAG 0.50 mg/ml, 48 hours",0.40 ± 0.12 mg/mL
same,Expr. prot. from NAG % incr. over baseline,"[2]; NAG 0.50 mg/ml, 72 hours",+10.3%
same,Expr. prot. from NAG (mg/ml) - Mean +/− st. dev.,"[2]; NAG 0.50 mg/ml, 72 hours",0.64 ± 0.12 mg/mL
same,Expr. prot. from NAG % incr. over baseline,"[2]; NAG 1.00 mg/ml, 24 hours",+44.9%
same,Expr. prot. from NAG (mg/ml) - Mean +/− st. dev.,"[2]; NAG 1.00 mg/ml, 24 hours",0.36 ± 0.047 mg/mL
same,Expr. prot. from NAG % incr. over baseline,"[2]; NAG 1.00 mg/ml, 48 hours",+41.2%
same,Expr. prot. from NAG (mg/ml) - Mean +/− st. dev.,"[2]; NAG 1.00 mg/ml, 48 hours",0.48 ± 0.11 mg/mL
same,Expr. prot. from NAG % incr. over baseline,"[2]; NAG 1.00 mg/ml, 72 hours",+20.7%
same,Expr. prot. from NAG (mg/ml) - Mean +/− st. dev.,"[2]; NAG 1.00 mg/ml, 72 hours",0.70 ± 0.08 mg/mL
same,Expr. prot. from NAG (mg/ml) - Mean +/− st. dev.,"[2]; NAG 2.00 mg/ml, 24 hours",0.38 ± 0.050 mg/mL
same,Expr. prot. from NAG % incr. over baseline,"[2]; NAG 2.00 mg/ml, 48 hours",+38.2%
same,Expr. prot. from NAG (mg/ml) - Mean +/− st. dev.,"[2]; NAG 2.00 mg/ml, 48 hours",0.47 ± 0.12 mg/mL
same,Expr. prot. from NAG % incr. over baseline,"[2]; NAG 2.00 mg/ml, 72 hours",+43.1%
same,Expr. prot. from NAG (mg/ml) - Mean +/− st. dev.,"[2]; NAG 2.00 mg/ml, 72 hours",0.83 ± 0.070 mg/mL
